Patent US11109588B2, “Stable liquid formulations and methods of using the same” (priority 2019, dated 2021)

Assay: Storage stability of liquid compositions in a sealed container, 8 weeks at 40° C., loss by HPLC
Format: physicochemical
Conditions: inert ingredients of Composition #7 of Table 3, aged 8 weeks at 40° C.

COC(=O)c1sccc1S(=O)(=O)NC(=O)Nc1nc(C)nc(OC)n1 [Thifensulfuron-methyl, thifensulfuron-methyl]
relative loss of thifensulfuron-methyl: less than 5 % w/w
